Laboratory results reported in EPA's ToxValDB 9.5 (doi:10.2903/j.efsa.2008.127r).
Values after ≈ are worked out from the molar mass of the structure shown.

How the values were obtained:
Folsomia candida = conditions: chronic/long-term; duration: 28 days
Apis mellifera = conditions: acute, mortality
Bibionidae = conditions: chronic/long-term; duration: 27 days
Daphnia magna = conditions: chronic/long-term; duration: 21 days; reproduction

## CCCCN(CC)c1c([N+](=O)[O-])cc(C(F)(F)F)cc1[N+](=O)[O-] [Benfluralin]
Tagia sp.; acute, duration: 14 days, mortality
  LC50: > 1000 mg/kg
Tagia sp.; chronic/long-term, duration: 8 weeks
  NOEC: 30.8 mg/kg
Folsomia candida
  NOEC: 5.5 mg/kg
Colinus virginianus; acute, oral, diet, mortality
  LC50: > 909 mg/kg-day
Colinus virginianus; acute, oral, mortality
  LD50: > 2000 mg/kg-day
Colinus virginianus; reproduction developmental
  NOEC: 8.6 mg/kg-day
Oncorhynchus mykiss; acute, duration: 96 hours, mortality
  LC50: 0.081 µg/mL (≈ 0.242 µM)
Oncorhynchus mykiss; chronic/long-term, duration: 49 days, growth
  NOEC: 0.0019 mg/L
Apis mellifera; dermal
  LD50: > 100 µg/piece
Apis mellifera; oral, unspecified
  LD50: > 111 µg/piece
Anas platyrhynchos; reproductive
  NOEC: 49.3 mg/kg-day
Anas platyrhynchos; short-term, oral, feed, mortality
  LC50: > 793 mg/kg-day
Bibionidae
  NOEC: 0.231 mg/L
Daphnia magna
  NOEC: 0.0155 mg/L
Rattus norvegicus; acute, oral, mortality
  LD50: > 5000 mg/kg-day
Rattus norvegicus; chronic, duration: 2 years, histopathology: nonneoplastic
  NOAEL: 0.5 mg/kg-day
Rattus norvegicus; reproduction developmental, body weight
  NOAEL: 5.5 mg/kg-day
Rattus norvegicus; subchronic, duration: 90 days, oral, histopathology: nonneoplastic
  NOAEL: 17 mg/kg-day
